Laboratory results taken from patent US20170266156A1, “METHOD FOR PREVENTING CANCER BY USING PHTHALIDES” (National Sun Yat-sen University, priority 2016, published 2017).

Molecular target: hemoglobin (Hb) (Homo sapiens, UniProt P68871+P69905)
Assay: oxygen equilibrium curves / P50 of hemoglobin treated with 2,3-BPG and phthalide compounds
Assay type: biochemical
Settings: for effect of phthalide compound together with 2,3-BPG (lowering the oxygen affinity of hemoglobin): FIG. 1
Excerpt: The oxygen affinity of hemoglobin is commonly characterized by P50 value. The P50 value is the required oxygen partial pressure for hemoglobin to achieve 50% oxygen saturation.

Chain of hemoglobin (Hb) (P69905 2-142 limits assumed): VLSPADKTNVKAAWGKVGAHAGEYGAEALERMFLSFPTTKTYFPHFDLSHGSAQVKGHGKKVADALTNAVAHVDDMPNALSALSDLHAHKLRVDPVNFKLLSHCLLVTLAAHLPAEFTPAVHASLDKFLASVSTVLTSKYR
Chain of hemoglobin (Hb) (P68871 2-147 limits assumed): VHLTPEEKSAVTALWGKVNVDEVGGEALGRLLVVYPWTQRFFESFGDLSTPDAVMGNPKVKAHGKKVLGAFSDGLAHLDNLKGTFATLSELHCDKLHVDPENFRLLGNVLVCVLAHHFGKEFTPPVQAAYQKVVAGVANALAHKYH

oxygen release efficiency of hemoglobin (1.2 mM 2,3-BPG, PO2 of 20 mmHg) | oxygen saturation fraction of hemoglobin (1.2 mM 2,3-BPG, PO2 of 20 mmHg) | oxygen saturation fraction of hemoglobin (Hb) (12 mM 2,3-BPG, fixed oxygen partial pressure of 20 mmHg, 80% where no 2,3-BPG is present) | oxygen release efficiency (12 mM 2,3-BPG, oxygen partial pressure 20 mmHg, 20% without 2,3-BPG) | change of P50 value with 2,3-BPG concentration (FIG. 2, various 2,3-BPG concentrations up to 12.0 mM) | P50 value (approximately 4 mM 2,3-BPG, no phthalide compound) | Compound | effect of phthalide compound together with 2,3-BPG (lowering the oxygen affinity of hemoglobin)
40% | approximately 60% | 35% | 65% | higher | 18.8 mmHg | O=C(O)C(COP(=O)(O)O)OP(=O)(O)O (centres unmarked) [2,3-BPG, 2,3-bisphosphorglycerate] | 
 |  |  |  |  |  | CCC/C=C1\OC(=O)C2=C1CCC=C2 [Z-ligustilide] | synergistic effect
 |  |  |  |  |  | CCC/C=C1\OC(=O)C2=C1CC[C@@H](O)[C@@H]2O [senkyunolide I] | synergistic effect
